The text below walks through data of US9433622B2, “Pyrimidine compounds useful in the treatment of diseases mediated by IKKE and/or TBK1 mechanisms” (DOMAINEX LIMITED, priority 2013, dated 2016).

Where two headings read alike, the source gives them in different places. Where only a bound is given, the exact number is not on record here.

One assay deals with IKKε (Homo sapiens (Human), UniProt Q14164). Nature of the assay: Lanthascreen TR-FRET kinase inhibition assay, IKKε. The class given is biochemical. The method, then: (§1) Compounds of the invention (synthesised as described below) were tested for activity against the IKKε and TBK-1 enzyme as follows:
(§2) Inhibitions studies were performed using a time-resolved fluorescence-based Lanthascreen™ assay. Phosphorylation of a fluorescein-labelled substrate peptide is measured using terbium-labeled phosphospecific antibodies.
(§3) Kinase inhibition assays (10 μL) were performed at 20° C. in 384-well plate format. […] The final reaction conditions contained 400 nM fluorescein-IkBα substrate ([…]), 20 μM ATP, 2 nM or 8 nM IKKε or TBK1 kinase respectively, and 3% DMSO in kinase assay buffer consisting of 50 mM HEPES (pH 7.5), 10 mM MgCl, 1 mM EGTA, 0.01% Brij-35.
(§4) Compound dilutions were prepared from 10 mM DMSO stocks by dilution into DMSO.
(§5) The kinase phosphorylation assay was initiated by the addition of the kinase and the reaction was allowed to proceed for 1 h or 2.5 h for IKKε and TBK-1 kinase respectively.
On the technique in general: Time-resolved FRET reads energy transfer from a long-lived donor to a nearby acceptor.

In the next assay the target is TBK1 (Homo sapiens (Human), UniProt Q9UHD2). Kind of assay: Lanthascreen TR-FRET kinase inhibition assay, TBK1. The class given is biochemical. Particulars: 20 μM ATP (apparent Km), 8 nM kinase, 2.5 h. The method, then:
as §1, §2, §3, §4, §5

The mark [1] stands for this setting: 20 μM ATP (apparent Km), 2 nM kinase, 1 h.

Chain of IKKε (Q14164 whole entry): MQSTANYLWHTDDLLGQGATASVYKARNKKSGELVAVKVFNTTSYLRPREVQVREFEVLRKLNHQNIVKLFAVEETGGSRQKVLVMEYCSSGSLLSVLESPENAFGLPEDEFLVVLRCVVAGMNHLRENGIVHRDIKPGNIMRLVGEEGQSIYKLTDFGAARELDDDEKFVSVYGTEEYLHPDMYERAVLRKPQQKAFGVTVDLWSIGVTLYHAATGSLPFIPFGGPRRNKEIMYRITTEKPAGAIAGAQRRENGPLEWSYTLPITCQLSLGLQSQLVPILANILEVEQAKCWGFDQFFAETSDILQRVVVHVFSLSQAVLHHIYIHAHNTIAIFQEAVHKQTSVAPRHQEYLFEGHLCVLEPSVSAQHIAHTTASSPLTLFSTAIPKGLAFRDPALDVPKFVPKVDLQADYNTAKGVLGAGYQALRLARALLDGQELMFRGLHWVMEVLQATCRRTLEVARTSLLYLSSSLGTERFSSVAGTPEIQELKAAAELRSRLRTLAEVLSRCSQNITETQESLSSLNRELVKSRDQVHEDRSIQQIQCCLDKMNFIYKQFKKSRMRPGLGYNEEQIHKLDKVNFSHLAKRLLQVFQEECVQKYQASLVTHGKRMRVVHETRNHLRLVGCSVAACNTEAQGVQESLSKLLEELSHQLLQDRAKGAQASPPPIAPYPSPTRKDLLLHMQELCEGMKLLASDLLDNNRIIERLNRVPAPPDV
Chain of TBK1 (Q9UHD2 whole entry): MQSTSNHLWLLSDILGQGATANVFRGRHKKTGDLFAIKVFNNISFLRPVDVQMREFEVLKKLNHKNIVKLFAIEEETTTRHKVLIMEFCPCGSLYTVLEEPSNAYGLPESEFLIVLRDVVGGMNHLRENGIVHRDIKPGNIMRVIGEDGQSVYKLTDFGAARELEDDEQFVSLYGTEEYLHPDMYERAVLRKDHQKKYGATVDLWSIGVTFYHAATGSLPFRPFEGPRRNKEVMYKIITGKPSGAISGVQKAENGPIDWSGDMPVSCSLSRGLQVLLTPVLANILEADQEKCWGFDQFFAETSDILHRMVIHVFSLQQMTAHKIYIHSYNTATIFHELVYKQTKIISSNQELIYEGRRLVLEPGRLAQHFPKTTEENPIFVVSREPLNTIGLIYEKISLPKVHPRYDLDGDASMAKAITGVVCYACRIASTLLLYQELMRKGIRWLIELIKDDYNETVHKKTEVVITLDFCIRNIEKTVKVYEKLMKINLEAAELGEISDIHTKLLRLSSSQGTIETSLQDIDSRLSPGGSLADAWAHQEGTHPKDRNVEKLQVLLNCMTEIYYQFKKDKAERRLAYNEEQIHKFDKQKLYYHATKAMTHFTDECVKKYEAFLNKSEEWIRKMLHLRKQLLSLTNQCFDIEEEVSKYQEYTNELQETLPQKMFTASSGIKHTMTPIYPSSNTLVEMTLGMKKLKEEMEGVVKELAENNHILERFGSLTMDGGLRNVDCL

For `CN1CCC(NC(=O)c2cccc(Nc3nccc(-c4cnc(N5CCC(F)(F)C5)c(C#N)c4)n3)c2)CC1` [DMX-14, 3-{4-[5-Cyano-6-(3,3-difluoro-pyrrolidin-1-yl)-pyridin-3-yl]-pyrimidin-2-ylamino}-N-(1-methyl-piperidin-4-yl)-benzamide], the IC50 on IKKε (setting [1]) and at TBK1 was less than 100 nM in each case.
For the molecule `CN1CCC(Nc2ccc(Nc3nccc(-c4cnc(N5CCC(F)(F)C5)c(C#N)c4)n3)cn2)CC1` [DMX-15, 2-(3,3-Difluoro-pyrrolidin-1-yl)-5-{2-[6-(1-methyl-piperidin-4-ylamino)-pyridin-3-ylamino]-pyrimidin-4-yl}-nicotinonitrile], the IC50 on IKKε (setting [1]) was less than 100 nM; at TBK1, less than 30 nM.
`Cn1cc(Nc2nccc(-c3cnc(N4CC[C@H](O)C4)c(C#N)c3)n2)cn1` [DMX-16, 2-((S)-3-Hydroxy-pyrrolidin-1-yl)-5-[2-(1-methyl-1H-pyrazol-4-ylamino)-pyrimidin-4-yl]-nicotinonitrile]: the IC50 on IKKε (setting [1]) and at TBK1 was less than 100 nM each time.
Consider `N#Cc1cc(-c2ccnc(Nc3ccc(NC(=O)CN4CCOCC4)nc3)n2)cnc1N1CC[C@H](F)C1` [DMX-17, N-(5-{4-[5-Cyano-6-((S)-3-fluoro-pyrrolidin-1-yl)-pyridin-3-yl]-pyrimidin-2-ylamino}-pyridin-2-yl)-2-morpholin-4-yl-acetamide], for which the IC50 at IKKε (setting [1]) and on TBK1 was less than 30 nM each time.
For the molecule `CC(C(=O)Nc1ccc(Nc2nccc(-c3cnc(N4CC[C@H](F)C4)c(C#N)c3)n2)cn1)N(C)C` (stereo partly drawn) [DMX-18, N-(5-{4-[5-Cyano-6-((S)-3-fluoro-pyrrolidin-1-yl)-pyridin-3-yl]-pyrimidin-2-ylamino}-pyridin-2-yl)-2-dimethylamino-propionamide], the IC50 on IKKε (setting [1]) and on TBK1 was less than 100 nM throughout.
In the case of `N#Cc1cc(-c2ccnc(Nc3ccc(NC(=O)C4CC4)nc3)n2)cnc1N1CC[C@H](F)C1` [DMX-19, Cyclopropanecarboxylic acid (5-{4-[5-cyano-6-((S)-3-fluoro-pyrrolidin-1-yl)-pyridin-3-yl]-pyrimidin-2-ylamino}-pyridin-2-yl)-amide], the IC50 on IKKε (setting [1]) and on TBK1 was less than 100 nM throughout.
`N#Cc1cc(-c2ccnc(Nc3cnc(N4CCOCC4)nc3)n2)cnc1N1CC[C@H](F)C1` [DMX-20, 2-((S)-3-Fluoro-pyrrolidin-1-yl)-5-[2-(2-morpholin-4-yl-pyrimidin-5-ylamino)-pyrimidin-4-yl]-nicotinonitrile]: the IC50 at IKKε (setting [1]) and at TBK1 was less than 100 nM each time.
Take `COCCN(C)CC(=O)Nc1ccc(Nc2nccc(-c3cnc(N4CC[C@H](F)C4)c(C#N)c3)n2)cn1` [DMX-21, N-(5-{4-[5-Cyano-6-((S)-3-fluoro-pyrrolidin-1-yl)-pyridin-3-yl]-pyrimidin-2-ylamino}-pyridin-2-yl)-2-[(2-methoxy-ethyl)-methyl-amino]-acetamide]: the IC50 at IKKε (setting [1]) and at TBK1 was less than 30 nM each time.
As to `CC(C)(O)CNc1ccc(Nc2nccc(-c3cnc(N4CC[C@H](F)C4)c(C#N)c3)n2)cn1` [DMX-22, 2-((S)-3-Fluoro-pyrrolidin-1-yl)-5-{2-[6-(2-hydroxy-2-methyl-propylamino)-pyridin-3-ylamino]-pyrimidin-4-yl}-nicotinonitrile], the IC50 was less than 15 nM on IKKε (setting [1]) and less than 30 nM on TBK1.
For `CC(C)N1CCN(CC(=O)Nc2ccc(Nc3nccc(-c4cnc(N5CC[C@H](F)C5)c(C#N)c4)n3)cn2)CC1` [DMX-23, N-(5-{4-[5-Cyano-6-((S)-3-fluoro-pyrrolidin-1-yl)-pyridin-3-yl]-pyrimidin-2-ylamino}-pyridin-2-yl)-2-(4-isopropyl-piperazin-1-yl)-acetamide], in that order: less than 30 nM and less than 30 nM.
The matching figures for `CN1CCN(c2ccc(Nc3nccc(-c4cnc(N5CC[C@H](F)C5)c(C#N)c4)n3)cn2)CC1` [DMX-24, 2-((S)-3-Fluoro-pyrrolidin-1-yl)-5-{2-[6-(4-methyl-piperazin-1-yl)-pyridin-3-ylamino]-pyrimidin-4-yl}-nicotinonitrile]: less than 15 nM and less than 15 nM.
The matching figures for `N#Cc1cc(-c2ccnc(Nc3ccc(N4CCNCC4)nc3)n2)cnc1N1CC[C@H](F)C1` [DMX-25, 2-((S)-3-Fluoro-pyrrolidin-1-yl)-5-[2-(6-piperazin-1-yl-pyridin-3-ylamino)-pyrimidin-4-yl]-nicotinonitrile]: less than 15 nM and less than 30 nM.
Consider `C[C@@H]1CN(c2ccc(Nc3nccc(-c4cnc(N5CC[C@H](O)C5)c(C#N)c4)n3)cn2)CCN1` [DMX-26, 2-((S)-3-Hydroxy-pyrrolidin-1-yl)-5-{2-[6-((R)-3-methyl-piperazin-1-yl)-pyridin-3-ylamino]-pyrimidin-4-yl}-nicotinonitrile], for which the IC50 is less than 100 nM on IKKε (setting [1]) and less than 30 nM at TBK1.
For the molecule `N#Cc1cc(-c2ccnc(Nc3ccc(NCCO)nc3)n2)cnc1N1CC[C@H](F)C1` [DMX-27, 2-((S)-3-Fluoro-pyrrolidin-1-yl)-5-{2-[6-(2-hydroxy-ethylamino)-pyridin-3-ylamino]-pyrimidin-4-yl}-nicotinonitrile], the IC50 against IKKε and on TBK1 was less than 30 nM each time.
Regarding `CN1CCC(NC(=O)c2ccc(Nc3ncc(F)c(-c4cnc(N5CC[C@H](F)C5)c(C#N)c4)n3)cc2)CC1` [DMX-28, 4-{4-[5-Cyano-6-((S)-3-fluoro-pyrrolidin-1-yl)-pyridin-3-yl]-5-fluoro-pyrimidin-2-ylamino}-N-(1-methyl-piperidin-4-yl)-benzamide], the concentration for half-maximal inhibition (IC50) at IKKε (setting [1]) and at TBK1 was less than 15 nM each time.
`N#Cc1cc(-c2ccnc(Nc3ccc(NC(=O)CN4CCC(O)CC4)nc3)n2)cnc1N1CC[C@H](F)C1` [DMX-29, N-(5-{4-[5-Cyano-6-((S)-3-fluoro-pyrrolidin-1-yl)-pyridin-3-yl]-pyrimidin-2-ylamino}-pyridin-2-yl)-2-(4-hydroxy-piperidin-1-yl)-acetamide]: the IC50 on IKKε (setting [1]) and on TBK1 was less than 30 nM in each case.
Regarding `N#Cc1cc(-c2ccnc(Nc3ccc(CN4CCOCC4)cc3)n2)cnc1N1CC[C@H](F)C1` [DMX-30, 2-((S)-3-Fluoro-pyrrolidin-1-yl)-5-[2-(4-morpholin-4-ylmethyl-phenylamino)-pyrimidin-4-yl]-nicotinonitrile], the IC50 on IKKε (setting [1]) and at TBK1 was less than 15 nM throughout.
Take `N#Cc1cc(-c2ccnc(Nc3ccc(NC(=O)CN4CCNCC4)nc3)n2)cnc1N1CC[C@H](F)C1` [DMX-31, N-(5-{4-[5-Cyano-6-((S)-3-fluoro-pyrrolidin-1-yl)-pyridin-3-yl]-pyrimidin-2-ylamino}-pyridin-2-yl)-2-piperazin-1-yl-acetamide]: the IC50 is less than 100 nM at IKKε (setting [1]) and less than 30 nM on TBK1.
As to `CC(C(=O)Nc1ccc(Nc2nccc(-c3cnc(N4CC[C@H](F)C4)c(C#N)c3)n2)cn1)N1CCOCC1` (stereo partly drawn) [DMX-32, N-(5-{4-[5-Cyano-6-((S)-3-fluoro-pyrrolidin-1-yl)-pyridin-3-yl]-pyrimidin-2-ylamino}-pyridin-2-yl)-2-morpholin-4-yl-propionamide], the IC50 at IKKε (setting [1]) and on TBK1 was less than 30 nM in each case.
Take `N#Cc1cc(-c2ccnc(Nc3cnn(C4CCOCC4)c3)n2)cnc1N1CC[C@H](F)C1` [DMX-33, 2-((S)-3-Fluoro-pyrrolidin-1-yl)-5-{2-[1-(tetrahydro-pyran-4-yl)-1H-pyrazol-4-ylamino]-pyrimidin-4-yl}-nicotinonitrile]: the IC50 on IKKε (setting [1]) and on TBK1 was less than 15 nM in each case.
On to `N#Cc1cc(-c2ccnc(Nc3ccnc(NC(=O)CN4CCOCC4)c3)n2)cnc1N1CC[C@H](F)C1` [DMX-34, N-(4-{4-[5-Cyano-6-((S)-3-fluoro-pyrrolidin-1-yl)-pyridin-3-yl]-pyrimidin-2-ylamino}-pyridin-2-yl)-2-morpholin-4-yl-acetamide], for which the IC50 at IKKε (setting [1]) and on TBK1 was less than 30 nM throughout.
With `N#Cc1cc(-c2ccnc(Nc3ccc(NC(=O)CN4CC[C@H](O)C4)nc3)n2)cnc1N1CC[C@H](F)C1` [DMX-35, N-(5-{4-[5-Cyano-6-((S)-3-fluoro-pyrrolidin-1-yl)-pyridin-3-yl]-pyrimidin-2-ylamino}-pyridin-2-yl)-2-((S)-3-hydroxy-pyrrolidin-1-yl)-acetamide], the IC50 against IKKε is less than 30 nM; at TBK1, less than 100 nM.
With `N#Cc1cc(-c2ccnc(Nc3cnn(CCO)c3)n2)cnc1N1CCCC1` [DMX-36, 5-{2-[1-(2-Hydroxy-ethyl)-1H-pyrazol-4-ylamino]-pyrimidin-4-yl}-2-pyrrolidin-1-yl-nicotinonitrile], the IC50 on IKKε (setting [1]) and at TBK1 was less than 30 nM in each case.
As to `N#Cc1cc(-c2ccnc(Nc3ccc(C(N)=O)cc3)n2)cnc1N1CCCC1` [DMX-37, 4-[4-(5-Cyano-6-pyrrolidin-1-yl-pyridin-3-yl)-pyrimidin-2-ylamino]-benzamide], the IC50 at IKKε (setting [1]) and on TBK1 was less than 15 nM in each case.
As to `N#Cc1cc(-c2ccnc(Nc3cnn(C[C@H](O)CO)c3)n2)cnc1N1CCCC1` [DMX-38, 5-{2-[1-((S)-2,3-Dihydroxy-propyl)-1H-pyrazol-4-ylamino]-pyrimidin-4-yl}-2-pyrrolidin-1-yl-nicotinonitrile], the IC50 on IKKε (setting [1]) was less than 100 nM; on TBK1, less than 15 nM.
As for `N#Cc1cc(-c2ccnc(Nc3cnn(C[C@@H](O)CO)c3)n2)cnc1N1CCCC1` [DMX-39, 5-{2-[1-((R)-2,3-Dihydroxy-propyl)-1H-pyrazol-4-ylamino]-pyrimidin-4-yl}-2-pyrrolidin-1-yl-nicotinonitrile], the IC50 on IKKε (setting [1]) was less than 30 nM; on TBK1, less than 15 nM.

One may read the IC50 as the point on the concentration scale where inhibition reaches its midpoint.
